According to patent US9603849B2, “Uses of orvepitant” (NERRE THERAPEUTICS LIMITED, priority 2012, dated 2017):

Target: NK-1 receptor (Meriones unguiculatus, UniProt Q5DUB1)
Assay: GR73632-induced hindlimb scratching behaviour in the Mongolian gerbil
Assay type: in vivo
Conditions: mean ± s.e.m.
From the text: 5) Particularly the antipruritic effect of orvepitant maleate was determinated in GR73632-induced scratching behaviour in the Mongolian gerbil. According to this metholody the scratching behaviour was induced by GR73632 which is a specific agonist of the NK-1 receptor.
72 male Mongolian gerbils (58-78 g) after a minimum habituation period of 10 days prior to study commencement, were acclimatised to the procedure room in their home cages, with food and water available ad libitum. The day before the experiment was due to commence a 1 cm×1 cm squared area between the shoulder blades was shaved free of hair.
Habituation to the apparatus (custom made observation chambers; approximately 30×30 cm; 2 animals per observation) took place 30 minutes prior to induction of scratching behaviours using GR73632.
A 10 mg/kg stock solution of orvepitant maleate was made by dissolving 20 mg of orvepitant maleate Form 1 in 20 mls of vehicle (5% DMSO & 95% HPMC (0.5%)). This stock solution was serially diluted to prepare doses of 0.1, 0.3, 1.0, 3.0 or 10 mg/kg orvepitant maleate.
At T=−60 mins mongolian gerbils were dosed with orvepitant maleate (0.1, 0.3, 1.0, 3.0 or, 10 mg/kg p.o.). Gerbils were allocated to dosing groups based on a Latin square design. 30 Minutes later (T=−30 mins) gerbils were placed into the observation chamber for 30 minutes habituation. At T=0 Gerbils were then dosed with GR73632 (30 nmol/100 uL; i.d.) between the shoulder blades and their subsequent hindlimb scratching behaviour recorded using GeoVision surveillance software over a 30 minute period.
Playing back of the video served for counting scratching behaviour. […] Cumulative frequency and duration (secs) of scratching was scored in 5 min epochs. Treatment groups were randomised based on a Latin Square design. The experimenter was blinded to the treatment groups.
Repeated measures ANOVA followed by Planned comparison test using GraphPad Prism. (p<0.05 considered significant). Data were analysed by comparing treatment groups to control group at each time point.

NK-1 receptor, sequence (Q5DUB1 whole entry): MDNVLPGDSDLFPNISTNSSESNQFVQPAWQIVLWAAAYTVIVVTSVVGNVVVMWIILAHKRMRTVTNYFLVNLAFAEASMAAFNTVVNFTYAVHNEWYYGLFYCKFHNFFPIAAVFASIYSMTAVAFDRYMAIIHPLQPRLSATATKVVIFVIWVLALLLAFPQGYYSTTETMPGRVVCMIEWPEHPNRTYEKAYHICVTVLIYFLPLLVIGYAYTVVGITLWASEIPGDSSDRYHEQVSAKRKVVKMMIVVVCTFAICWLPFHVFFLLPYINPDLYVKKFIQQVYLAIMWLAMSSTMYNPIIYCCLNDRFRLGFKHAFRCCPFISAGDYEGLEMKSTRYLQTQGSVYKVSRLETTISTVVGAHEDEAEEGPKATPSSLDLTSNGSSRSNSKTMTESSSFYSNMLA

For `Cc1cc(F)ccc1[C@H]1C[C@@H](N2CCN3C(=O)CC[C@H]3C2)CCN1C(=O)N(C)[C@H](C)c1cc(C(F)(F)F)cc(C(F)(F)F)c1.O=C(O)/C=C\C(=O)O` [orvepitant maleate, 2-(R)-(4-Fluoro-2-methyl-phenyl)-4-(S)-((8aS)-6-oxo-hexahydro-pyrrolo[1,2-a]-pyrazin-2-yl)-piperidine-1-carboxylic acid [1-(R)-(3,5-bis-trifluoromethyl-phenyl)-ethyl]-methylamide maleate], the “Cumulative duration of hindlimb scratching” value (from here on “Cumulative duration”) (0.1 mg/kg p.o., 0-5 mins after GR73632 i.d., vehicle 5.35 ± 1.37) was “NS 2.76 ± 0.71 secs”, the “Cumulative frequency of hindlimb scratching” value (from here on “Cumulative frequency”) (0.1 mg/kg p.o., 0-5 mins after GR73632 i.d., vehicle 7.75 ± 2.18) was “NS4.08 ± 1.45” and the “Cumulative duration” value (0.1 mg/kg p.o., 5-10 mins after GR73632 i.d., vehicle 11.71 ± 1.93) was “**4.20 ± 0.85 secs”. For the same molecule, the “Cumulative frequency” value (0.1 mg/kg p.o., 5-10 mins after GR73632 i.d., vehicle 14.41 ± 2.49) was “**5.83 ± 1.55”, the “Cumulative duration” value (0.1 mg/kg p.o., 10-15 mins after GR73632 i.d., vehicle 16.54 ± 2.58) was “***5.96 ± 1.16 secs” and the “Cumulative frequency” value (0.1 mg/kg p.o., 10-15 mins after GR73632 i.d., vehicle 20.25 ± 2.97) was “***7.91 ± 1.74”. The “Cumulative duration” value (0.1 mg/kg p.o., 15-20 mins after GR73632 i.d., vehicle 20.08 ± 2.83) was “***7.86 ± 1.67 secs”, the “Cumulative frequency” value (0.1 mg/kg p.o., 15-20 mins after GR73632 i.d., vehicle 24.33 ± 3.22) was “***9.66 ± 1.92” and the “Cumulative duration” value (0.1 mg/kg p.o., 20-25 mins after GR73632 i.d., vehicle 23.19 ± 2.80) was “***8.99 ± 2.09 secs”. The “Cumulative frequency” value (0.1 mg/kg p.o., 20-25 mins after GR73632 i.d., vehicle 28.25 ± 3.26) was “***10.91 ± 2.07”, the “Cumulative duration” value (0.1 mg/kg p.o., 25-30 mins after GR73632 i.d., vehicle 25.69 ± 3.026) was “***9.67 ± 2.14 secs” and the “Cumulative frequency” value (0.1 mg/kg p.o., 25-30 mins after GR73632 i.d., vehicle 32.00 ± 3.60) was “***11.58 ± 2.12”. For the same molecule, the “Cumulative duration” value (0.3 mg/kg p.o., 0-5 mins after GR73632 i.d., vehicle 5.35 ± 1.37) was “NS 2.06 ± 0.62 secs”, the “Cumulative frequency” value (0.3 mg/kg p.o., 0-5 mins after GR73632 i.d., vehicle 7.75 ± 2.18) was “NS3.00 ± 0.88” and the “Cumulative duration” value (0.3 mg/kg p.o., 5-10 mins after GR73632 i.d., vehicle 11.71 ± 1.93) was “**3.50 ± 0.88 secs”. The “Cumulative frequency” value (0.3 mg/kg p.o., 5-10 mins after GR73632 i.d., vehicle 14.41 ± 2.49) was “***4.91 ± 1.15”, the “Cumulative duration” value (0.3 mg/kg p.o., 10-15 mins after GR73632 i.d., vehicle 16.54 ± 2.58) was “***5.86 ± 1.44 secs” and the “Cumulative frequency” value (0.3 mg/kg p.o., 10-15 mins after GR73632 i.d., vehicle 20.25 ± 2.97) was “***7.50 ± 1.56”. The “Cumulative duration” value (0.3 mg/kg p.o., 15-20 mins after GR73632 i.d., vehicle 20.08 ± 2.83) was “***7.09 ± 1.63 secs”, the “Cumulative frequency” value (0.3 mg/kg p.o., 15-20 mins after GR73632 i.d., vehicle 24.33 ± 3.22) was “***8.66 ± 1.61” and the “Cumulative duration” value (0.3 mg/kg p.o., 20-25 mins after GR73632 i.d., vehicle 23.19 ± 2.80) was “***8.58 ± 1.93 secs”. For the same molecule, the “Cumulative frequency” value (0.3 mg/kg p.o., 20-25 mins after GR73632 i.d., vehicle 28.25 ± 3.26) was “***10.00 ± 1.62”, the “Cumulative duration” value (0.3 mg/kg p.o., 25-30 mins after GR73632 i.d., vehicle 25.69 ± 3.026) was “***10.27 ± 2.17 secs” and the “Cumulative frequency” value (0.3 mg/kg p.o., 25-30 mins after GR73632 i.d., vehicle 32.00 ± 3.60) was “***11.75 ± 1.90”. The “Cumulative duration” value (1.0 mg/kg p.o., 0-5 mins after GR73632 i.d., vehicle 5.35 ± 1.37) was “NS 2.74 ± 1.06 secs”, the “Cumulative frequency” value (1.0 mg/kg p.o., 0-5 mins after GR73632 i.d., vehicle 7.75 ± 2.18) was “NS3.75 ± 1.30” and the “Cumulative duration” value (1.0 mg/kg p.o., 5-10 mins after GR73632 i.d., vehicle 11.71 ± 1.93) was “**4.51 ± 1.05 secs”. The “Cumulative frequency” value (1.0 mg/kg p.o., 5-10 mins after GR73632 i.d., vehicle 14.41 ± 2.49) was “**5.91 ± 1.25”, the “Cumulative duration” value (1.0 mg/kg p.o., 10-15 mins after GR73632 i.d., vehicle 16.54 ± 2.58) was “***4.92 ± 1.13 secs” and the “Cumulative frequency” value (1.0 mg/kg p.o., 10-15 mins after GR73632 i.d., vehicle 20.25 ± 2.97) was “***6.41 ± 1.29”. For the same molecule, the “Cumulative duration” value (1.0 mg/kg p.o., 15-20 mins after GR73632 i.d., vehicle 20.08 ± 2.83) was “***6.02 ± 1.28 secs”, the “Cumulative frequency” value (1.0 mg/kg p.o., 15-20 mins after GR73632 i.d., vehicle 24.33 ± 3.22) was “***8.00 ± 1.39” and the “Cumulative duration” value (1.0 mg/kg p.o., 20-25 mins after GR73632 i.d., vehicle 23.19 ± 2.80) was “***7.48 ± 1.55 secs”. For the same molecule, the “Cumulative frequency” value (1.0 mg/kg p.o., 20-25 mins after GR73632 i.d., vehicle 28.25 ± 3.26) was “***9.66 ± 1.71”, the “Cumulative duration” value (1.0 mg/kg p.o., 25-30 mins after GR73632 i.d., vehicle 25.69 ± 3.026) was “***10.00 ± 2.17 secs” and the “Cumulative frequency” value (1.0 mg/kg p.o., 25-30 mins after GR73632 i.d., vehicle 32.00 ± 3.60) was “***12.08 ± 2.25”. For the same molecule, the “Cumulative duration” value (3.0 mg/kg p.o., 0-5 mins after GR73632 i.d., vehicle 5.35 ± 1.37) was “NS 0.96 ± 0.32 secs”, the “Cumulative frequency” value (3.0 mg/kg p.o., 0-5 mins after GR73632 i.d., vehicle 7.75 ± 2.18) was “NS1.58 ± 0.46” and the “Cumulative duration” value (3.0 mg/kg p.o., 5-10 mins after GR73632 i.d., vehicle 11.71 ± 1.93) was “***1.30 ± 0.38 secs”. The “Cumulative frequency” value (3.0 mg/kg p.o., 5-10 mins after GR73632 i.d., vehicle 14.41 ± 2.49) was “***2.16 ± 0.58”, the “Cumulative duration” value (3.0 mg/kg p.o., 10-15 mins after GR73632 i.d., vehicle 16.54 ± 2.58) was “***1.79 ± 0.39 secs” and the “Cumulative frequency” value (3.0 mg/kg p.o., 10-15 mins after GR73632 i.d., vehicle 20.25 ± 2.97) was “***2.83 ± 0.57”. For the same molecule, the “Cumulative duration” value (3.0 mg/kg p.o., 15-20 mins after GR73632 i.d., vehicle 20.08 ± 2.83) was “***2.415 ± 0.47 secs”, the “Cumulative frequency” value (3.0 mg/kg p.o., 15-20 mins after GR73632 i.d., vehicle 24.33 ± 3.22) was “***3.66 ± 0.64” and the “Cumulative duration” value (3.0 mg/kg p.o., 20-25 mins after GR73632 i.d., vehicle 23.19 ± 2.80) was “***2.59 ± 0.50 secs”. For the same molecule, the “Cumulative frequency” value (3.0 mg/kg p.o., 20-25 mins after GR73632 i.d., vehicle 28.25 ± 3.26) was “***4.00 ± 0.67”, the “Cumulative duration” value (3.0 mg/kg p.o., 25-30 mins after GR73632 i.d., vehicle 25.69 ± 3.026) was “***3.09 ± 0.61 secs” and the “Cumulative frequency” value (3.0 mg/kg p.o., 25-30 mins after GR73632 i.d., vehicle 32.00 ± 3.60) was “***4.58 ± 0.76”. For the same molecule, the “Cumulative duration” value (10.0 mg/kg p.o., 0-5 mins after GR73632 i.d., vehicle 5.35 ± 1.37) was “NS 0.57 ± 0.29 secs”, the “Cumulative frequency” value (10.0 mg/kg p.o., 0-5 mins after GR73632 i.d., vehicle 7.75 ± 2.18) was “*0.91 ± 0.43” and the “Cumulative duration” value (10.0 mg/kg p.o., 5-10 mins after GR73632 i.d., vehicle 11.71 ± 1.93) was “***1.13 ± 0.38 secs”. For the same molecule, the “Cumulative frequency” value (10.0 mg/kg p.o., 5-10 mins after GR73632 i.d., vehicle 14.41 ± 2.49) was “***1.66 ± 0.60”, the “Cumulative duration” value (10.0 mg/kg p.o., 10-15 mins after GR73632 i.d., vehicle 16.54 ± 2.58) was “***2.38 ± 0.78 secs” and the “Cumulative frequency” value (10.0 mg/kg p.o., 10-15 mins after GR73632 i.d., vehicle 20.25 ± 2.97) was “***2.58 ± 0.73”. For the same molecule, the “Cumulative duration” value (10.0 mg/kg p.o., 15-20 mins after GR73632 i.d., vehicle 20.08 ± 2.83) was “***3.22 ± 0.84 secs”, the “Cumulative frequency” value (10.0 mg/kg p.o., 15-20 mins after GR73632 i.d., vehicle 24.33 ± 3.22) was “***3.58 ± 0.73” and the “Cumulative duration” value (10.0 mg/kg p.o., 20-25 mins after GR73632 i.d., vehicle 23.19 ± 2.80) was “***4.36 ± 1.18 secs”. The “Cumulative frequency” value (10.0 mg/kg p.o., 20-25 mins after GR73632 i.d., vehicle 28.25 ± 3.26) was “***5.00 ± 0.92”, the “Cumulative duration” value (10.0 mg/kg p.o., 25-30 mins after GR73632 i.d., vehicle 25.69 ± 3.026) was “***5.24 ± 1.35 secs” and the “Cumulative frequency” value (10.0 mg/kg p.o., 25-30 mins after GR73632 i.d., vehicle 32.00 ± 3.60) was “***5.91 ± 1.16”.
